Measured values: patent US6838414B2, “Substituted aryl sulphonyl(thio)ureas used as herbicides” (Bayer Aktiengesellschaft, priority 1996, dated 2005)

Legend:
Echinochloa = assay: Post-emergence test/greenhouse; format: in vivo; conditions: rated after three weeks vs untreated control
Experimental: (§1) To produce a suitable preparation of active compound, 1 part by weight of active compound is mixed with the stated amount of solvent, the stated amount of emulsifier is added and the concentrate is diluted with water to the desired concentration.
(§2) Test plants which have a height of 5-15 cm are sprayed with the preparation of the active compound in such a way as to apply the particular amounts of active compound desired per unit area. The concentration of the spray liquor is chosen so that the amounts of active compound desired in each case are applied in 1000 l of water/ha.
(§3) After three weeks, the degree of damage to the plants is rated in % damage in comparison with the development of the untreated control.
(§4) The figures denote: • 0%=no effect (like untreated control) • 100%=total destruction

Abutilon = assay: Post-emergence test/greenhouse; format: in vivo; conditions: rated after three weeks vs untreated control
Experimental: as §1, §2, §3, §4

weeds [1] = assay: Post-emergence test/greenhouse; format: in vivo
Experimental: as §1, §2, §3, §4

Alopecurus [2] = assay: Post-emergence test/greenhouse; format: in vivo; conditions: rated after three weeks vs untreated control
Experimental: as §1, §2, §3, §4

Matricaria = assay: Post-emergence test/greenhouse; format: in vivo; conditions: rated after three weeks vs untreated control
Experimental: as §1, §2, §3, §4

Lolium = assay: Pre-emergence test/greenhouse; format: in vivo; conditions: after three weeks
Experimental: as §1
(§5) Seeds of the test plants are sown in normal soil. After about 24 hours, the soil is sprayed with the preparation of the active compound. Advantageously, the amount of water per unit area is kept constant. The active compound concentration in the preparation is not important, only the active compound application rate per unit area is critical.
as §3, §4

Sorghum = assay: Pre-emergence test/greenhouse; format: in vivo; conditions: after three weeks
Experimental: as §1, §5, §3, §4

Alopecurus [3] = assay: Pre-emergence test/greenhouse; format: in vivo; conditions: after three weeks
Experimental: as §1, §5, §3, §4

Amaranthus = assay: Pre-emergence test/greenhouse; format: in vivo; conditions: after three weeks
Experimental: as §1, §5, §3, §4

Chenopodium = assay: Pre-emergence test/greenhouse; format: in vivo; conditions: after three weeks
Experimental: as §1, §5, §3, §4

Stellaria = assay: Pre-emergence test/greenhouse; format: in vivo; conditions: after three weeks
Experimental: as §1, §5, §3, §4

weeds [4] = assay: Pre-emergence test (overall statement); format: in vivo; conditions: application rates between 30 g and 125 g of a.i. per hectare
Experimental: as §1, §5, §3, §4

[5] = application rate 60 g of ai./ha
[6] = application rate 30 g of ai./ha

Row | SMILES | degree of damage to the plants, Echinochloa (Echinochloa; [5]) [%] | degree of damage to the plants, Abutilon (Abutilon; [5]) [%] | activity against weeds (weeds [1]) | degree of damage to the plants, Alopecurus (Alopecurus [2]; [5]) [%] | degree of damage to the plants, Matricaria (Matricaria; [5]) [%] | Lolium, % damage (Lolium; 60 g of ai./ha) [%] | Sorghum, % damage (Sorghum; 60 g of ai./ha) [%] | Alopecurus, % damage (Alopecurus [3]; 60 g of ai./ha) [%] | Amaranthus, % damage (Amaranthus; 60 g of ai./ha) [%] | Chenopodium, % damage (Chenopodium; 60 g of ai./ha) [%] | Steltaria, % damage (Stellaria; 60 g of ai./ha) [%] | activity against weeds (weeds [4]) | Lolium, % damage (Lolium; 30 g of ai./ha) [%] | Sorghum, % damage (Sorghum; 30 g of ai./ha) [%] | Alopecurus, % damage (Alopecurus [3]; 30 g of ai./ha) [%] | Amaranthus, % damage (Amaranthus; 30 g of ai./ha) [%] | Chenopodium, % damage (Chenopodium; 30 g of ai./ha) [%] | Steltaria, % damage (Stellaria; 30 g of ai./ha) [%] | degree of damage to the plants, Echinochloa (Echinochloa; [6]) [%] | degree of damage to the plants, Abutilon (Abutilon; [6]) [%] | further results
1 | COc1nc(C)nc(NC(=O)NS(=O)(=O)c2c(C)cccc2OC(F)F)n1 [Example 66] | 80 | 100 | very strong activity against weeds | 80 | 100 | 95 | 95 | 95 | 95 | 95 | 95 | very strong activity against weeds |  |  |  |  |  |  |  |  | 
2 | CCOc1cccc(C)c1S(=O)(=O)NC(=O)Nc1nc(C)cc(OC)n1 [Example 27] | 95 | 100 | very strong activity against weeds | 95 | 90 | 100 | 100 | 100 | 100 | 100 | 100 | very strong activity against weeds |  |  |  |  |  |  |  |  | 
3 | CCCOc1cccc(C(F)(F)F)c1S(=O)(=O)NC(=O)Nc1nc(C)nc(OC)n1 [Example 9] |  |  | very strong activity against weeds |  |  |  |  |  |  |  |  | very strong activity against weeds | 100 | 90 | 100 | 100 | 100 | 100 |  |  | degree of damage to the plants, Echinochloa (Echinochloa; application rate 8 g of ai./ha): 80%; degree of damage to the plants, Abutilon (Abutilon; application rate 8 g of ai./ha): 100%; degree of damage to the plants, Alopecurus (Alopecurus [2]; application rate 8 g of ai./ha): 90%; degree of damage to the plants, Matricaria (Matricaria; application rate 8 g of ai./ha): 95%
4 | COc1cccc(C(F)(F)F)c1S(=O)(=O)NC(=O)Nc1nc(C)cc(C)n1 [Example 1, N-(4,6-dimethyl-pyrimidin-2-yl)-N′-(2-methoxy-6-trifluoromethyl-phenylsulphonyl)-urea] |  |  |  |  |  | 100 | 100 | 100 | 100 | 100 | 100 | very strong activity against weeds |  |  |  |  |  |  |  |  | melting point: 190 °C
5 | CCOc1cccc(C)c1S(=O)(=O)NC(=O)Nc1nc(OC)nc(OC)n1 [Example 31] | 80 | 100 | very strong activity against weeds | 80 | 100 | 100 | 90 | 95 | 95 | 100 | 95 | very strong activity against weeds |  |  |  |  |  |  |  |  | 
6 | COc1cccc(C)c1S(=O)(=O)NC(=O)Nc1nc(C)cc(C)n1 [Example 41] |  |  | very strong activity against weeds |  |  |  |  |  |  |  |  | very strong activity against weeds | 100 | 100 | 95 | 60 | 100 | 80 | 95 | 90 | degree of damage to the plants, Alopecurus (Alopecurus [2]; [6]): 60%; degree of damage to the plants, Matricaria (Matricaria; [6]): 70%
7 | COc1nc(C)nc(NC(=O)NS(=O)(=O)c2c(OC)cccc2C(F)(F)F)n1 [Example 5] |  |  | very strong activity against weeds |  |  | 100 | 100 | 100 | 100 | 100 | 100 | very strong activity against weeds |  |  |  |  |  |  | 100 | 100 | degree of damage to the plants, Alopecurus (Alopecurus [2]; [6]): 80%; degree of damage to the plants, Matricaria (Matricaria; [6]): 100%
8 | CCOc1cccc(C)c1S(=O)(=O)NC(=O)Nc1nc(C)nc(OC)n1 [Example 32] | 90 | 100 | very strong activity against weeds | 70 | 100 | 100 | 95 | 95 | 100 | 100 | 100 | very strong activity against weeds |  |  |  |  |  |  |  |  | 
9 | CCCOc1cccc(C)c1S(=O)(=O)NC(=O)Nc1nc(C)nc(OC)n1 [Example 49] |  |  | very strong activity against weeds |  |  |  |  |  |  |  |  | very strong activity against weeds | 100 | 100 | 100 | 100 | 100 | 100 | 80 | 100 | degree of damage to the plants, Alopecurus (Alopecurus [2]; [6]): 90%; degree of damage to the plants, Matricaria (Matricaria; [6]): 100%
10 | COc1nc(NC(=O)NS(=O)(=O)c2c(C)cccc2OC(C)C)nc(OC)n1 [Example 39] |  |  | very strong activity against weeds |  |  |  |  |  |  |  |  | very strong activity against weeds | 100 | 100 | 100 | 100 | 100 | 100 | 95 | 100 | degree of damage to the plants, Alopecurus (Alopecurus [2]; [6]): 90%; degree of damage to the plants, Matricaria (Matricaria; [6]): 100%
11 | CCCOc1cccc(C)c1S(=O)(=O)NC(=O)Nc1nc(OC)nc(OC)n1 [Example 48] | 70 | 100 | very strong activity against weeds | 95 | 90 | 100 | 100 | 100 | 100 | 100 | 100 | very strong activity against weeds |  |  |  |  |  |  |  |  | 
